Results taken from US20030096264A1, “Multi-parameter high throughput screening assays (MPHTS)” (Psychiatric Genomics, Inc., priority 2001, published 2003).

Columns and labels:
[1] = tested on: human neuroblastoma cell line NBFL; assay: Microarray expression profile of NBFL cells incubated with valproate; type: cell-based; settings: 0.5 mM valproate, 24 h
Protocol: The additional signature genes described here were identified using a human neuroblastoma cell line that is known in the art as NBFL (see, Symes et al., Proc. Natl. Acad. Sci. U.S.A. 1993, 90(2):572-576). NBFL cell cultures were maintained in DMEM medium supplemented with L-glutmine, antibiotics, 10% fetal bovine serum and 5% horse serum. Before treatment, cells were passaged, allowed to adhere overnight, and the medium was replaced with serum free medium for 24 hours. The cells were then incubated for 24 hours in either the presence or absence of valproate (0.5 mM), and in the absence of serum. mRNA was extracted from each group of cultures and sent to a commercial company for expression profiling by hybridization to microarrays. Data from at least three independent microarray experiments was then statistically evaluated to identify genes that are differentially expressed in the presence of valproate, relative to expression levels in the absence of valproate.
Table 3, below, list each of the genes whose expression level changed in cells exposed to valproate, identified using a UniGem V2 array from Incyte (Palo Alto, Calif.) and also provides the expression ratio ((), defined in Example 1, supra) measured for each gene. Each gene is identified in Table 3 by its common name, as well as by the GenBank Accession and Gene Identification (GI) numbers for its nucleotide sequence. A cDNA sequence for each gene listed in Table 3 is also provided in the accompanying Sequence Listing, and its sequence identifier is specified in Table 3 along with the GenBank Accession number. Table 3 also indicates the Unigene cluster number for each gene from a recent build of the NCBI Unigene database.

[2] = tested on: rat (rattus norvegicus) neuronal cells; assay: Microarray expression profile of primary rat cortical neurons incubated with valproate; type: cell-based; settings: 0.5 mM valproate, 3 days
Text: This example describes experiments, which analyzed changes in the expression profile for rat (rattus norvegicus) neuronal cells induced by valproate, a drug used clinically to treat neuropsychiatric disorders such as bipolar disorder. […] Expression profiles for these genes are compared to expression profiles for orthologous genes in human schizophrenia patients.
Primary neuron cells were isolated from E19 rat embryos and cultured as follows. First, the cortex was dissected from each embryo and placed in HBSS solution. The HBSS solution was subsequently removed and replaced with 5 ml papain solution at a concentration of 10 units per ml. The cortex was then incubated in the papain solution for 10 minutes and at 37° C. After incubation, the Papain solution was removed and 10% NuSerum media (Becton Dickinson, Bedford Mass.) was added in its place. The cortex was then centrifuged at 1000 rpm for 10 minutes, after which time the solution was removed and 1 ml of media containing 0.1% DNase was added. Cells were titurated immediately to break up the tissue. The volume of the cell suspensions was brought up to 15 ml and the cells were counted.
Approximately 4×10^6 cells were plated per 10 cm dish, in NeuroBasal A (Invitrogen Corp., Carlsbad Calif.) medium containing B27 and insulin (25 μg/ml). The cell cultures were incubated in a humidified incubator with 5% CO2 and at 37° C. The culture media were changed every 2 days. Cells were incubated in 0.5 mM valproate for 3 days. Control cultures were also prepared and incubated under the same conditions (including the carrier DMSO) but without valproate.
mRNA was extracted from each group of cultures and expression profiles were measured on microarrays according to standard techniques (see the Detailed Description section, infra). Data from duplicate microarrays was statistically evaluated to identify genes that are differentially expressed in the presence of valproate, relative to expression levels in the absence of valproate.
Table 1, below, lists the twelve genes identified in these experiments as being differentially expressed in the presence of valproate, relative to its expression level in the absence of valproate. These genes were identified using a Rat Toxicology array from Incyte (Palo Alto, Calif.). Each gene is listed in Table 1 by its common or popular name, along with the GenBank Accession and Gene Identification (GI) numbers of the rat gene whose expression level was evaluated in these experiments. The “expression ratio” measured for each gene is also specified. Specifically, the expression ratio, Φ, was calculated using the formula: [formula]
where Ev is the expression level measured in cells incubated with valproate and Eo is the expression level in the absence of valproate.

For `CCCC(CCC)C(=O)O` [valproate], the “expression ratio Φ: nidogen (NID)” value ([1]; serum free, SEQ ID NO: 25) was 1.7, the “expression ratio Φ: silver (SIL)” value ([1]; SEQ ID NO: 26) was 1.6 and the “expression ratio Φ: Homo sapiens clone 23798 and 23825” value ([1]; SEQ ID NO: 27) was 1.5. For the same compound, the “expression ratio Φ: LIM protein” value ([1]; SEQ ID NO: 28) was 1.4, the “expression ratio Φ: carnitine palmitoyltransferase II” value ([1]; SEQ ID NO: 29) was 1.4 and the “expression ratio Φ: iduronate-2-sulfatase” value ([1]; SEQ ID NO: 30) was 1.4. For the same compound, the “expression ratio Φ: dynamin 1” value ([1]; SEQ ID NO: 31) was 1.4, the “expression ratio Φ: myosin IB” value ([1]; SEQ ID NO: 32) was 1.4 and the “expression ratio Φ: EGF-like-domain” value ([1]; SEQ ID NO: 33) was 1.4. For the same compound, the “expression ratio Φ: islet cell autoantigen 1” value ([1]; SEQ ID NO: 34) was −1.4, the “expression ratio Φ: regulator of G-protein signaling 5” value ([1]; SEQ ID NO: 35) was −1.4 and the “expression ratio Φ: XPA binding protein 1” value ([1]; SEQ ID NO: 36) was −1.4. The “expression ratio Φ: P311 protein” value ([1]; SEQ ID NO: 37) was −1.4, the “expression ratio Φ: SWI/SNF” value ([1]; SEQ ID NO: 38) was −1.4 and the “expression ratio Φ: ALL1” value ([1]; SEQ ID NO: 39) was −1.4. The “expression ratio Φ: RNA binding motif” value ([1]; SEQ ID NO: 40) was −1.4, the “expression ratio Φ: SMAD1” value ([1]; SEQ ID NO: 41) was −1.4 and the “expression ratio Φ: NADH dehydrogenase (ubiquinone)” value ([1]; SEQ ID NO: 42) was −1.4. For the same compound, the “expression ratio Φ: calmodulin 2” value ([1]; SEQ ID NO: 43) was −1.4, the “expression ratio Φ: vimentin” value ([1]; SEQ ID NO: 44) was −1.4 and the “expression ratio Φ: GRB2-associated binding protein 1” value ([1]; SEQ ID NO: 45) was −1.5. The “expression ratio Φ: splicing factor 3b (subunit 3)” value ([1]; SEQ ID NO: 46) was −1.5, the “expression ratio Φ: DKFZp547DO26_r1 (EST)” value ([1]; SEQ ID NO: 47) was −1.5 and the “expression ratio Φ: insulinoma-associated 1 (INSM1)” value ([1]; SEQ ID NO: 48) was −1.6. The “expression ratio Φ: neuroendocrine secretory protein 55” value ([1]; SEQ ID NO: 49) was −1.6, the “expression ratio Φ: v-yes-1” value ([1]; SEQ ID NO: 50) was −1.6 and the “expression ratio Φ: chromodomain helicase DNA binding” value ([1]; SEQ ID NO: 51) was −1.6. For the same compound, the “expression ratio Φ: cholinergic receptor” value ([1]; SEQ ID NO: 52) was −1.7, the “expression ratio Φ: dopmine β-hydroxylase (DBH)” value ([1]; SEQ ID NO: 53) was -1.7 and the “expression ratio Φ: dopa decarboxylase (DDC)” value ([1]; SEQ ID NO: 54) was −2. The “expression ratio Φ: chromogranin B (CG-B)” value ([1]; SEQ ID NO: 55) was −2.1, the “expression ratio Φ: myelin-associated glycoprotein (MAG)” value ([2]; vs no valproate, M22357 SEQ ID NO: 1) was 2.16 and the “expression ratio Φ: calmodulin” value ([2]; AF178845 SEQ ID NO: 5) was −1.95. The “expression ratio Φ: SCG10” value ([2]; AY004290 SEQ ID NO: 4) was −1.43, the “expression ratio Φ: selenoprotein P” value ([2]; D25221 SEQ ID NO: 11) was 1.51 and the “expression ratio Φ: plasma membrane calcium ATPase” value ([2]; J03753 SEQ ID NO: 12) was −1.36. The “expression ratio Φ: GAP-43” value ([2]; L21191 SEQ ID NO: 3) was −1.88, the “expression ratio Φ: 2′,3′-cyclic nucleotide-3′ phosphodiesterase (CNPI)” value ([2]; M18630 SEQ ID NO: 2) was 1.92 and the “expression ratio Φ: calcineurin A” value ([2]; M29275 SEQ ID NO: 6) was −1.43. For the same compound, the “expression ratio Φ: kinesin light chain C” value ([2]; M75148 SEQ ID NO: 8) was −1.53, the “expression ratio Φ: hypoxanthine-guanine phosphoribosyltransferase” value ([2]; M86443 SEQ ID NO: 10) was −1.37 and the “expression ratio Φ: cysteine-rich protein” value ([2]; U09567 SEQ ID NO: 9) was 1.49. The “expression ratio Φ: protein kinase C-binding protein NELL2” value ([2]; U48245 SEQ ID NO: 7) was −1.7.
